In ChEMBL document CHEMBL1145468, “Serum differentially alters the antifungal properties of echinocandin drugs” (Antimicrob Agents Chemother, 2007):
In brackets after ≈: the same amount, converted by molar mass. *1 amine or outer side, *2 acyl side, *3 side chain or, on linkers, in order; H or OH if unused. Where a SMILES comes first, the peptide text is derived from it. Bridges are numbered along the chain shown (N, C = ends). [ ]: non-standard residue; d: D form. The star is where a group is joined. hTyr(3S-OH,4S-OH,3'-OSO3H) = N[C@H](C(=O)O)[C@H](O)[C@@H](O)c1ccc(O)c(OS(=O)(=O)O)c1; pTerphenylCO(4''-OnC5H11) = CCCCCOc1ccc(-c2ccc(-c3ccc(C(=O)*)cc3)cc2)cc1; Orn(4R-OH,5R-OH) = O=C([C@H](C[C@@H](O)[C@@H](O)N[*:3])N[*:1])[*:2]; hTyr(3S-OH,4S-OH) = N[C@H](C(=O)O)[C@H](O)[C@@H](O)c1ccc(O)cc1; Pro(3S-OH,4S-Me) = C[C@H]1CN[C@H](C(=O)O)[C@H]1O; X1 = CCCCCOc1ccc(-c2cc(-c3ccc(C(=O)*)cc3)no2)cc1; Gln(3R-OH) = NC(=O)C[C@@H](O)[C@H](N)C(=O)O; Hyp = O=C(O)[C@@H]1C[C@@H](O)CN1

Tests used:
Candida tropicalis = test: Ratio of MIC for Candida tropicalis to MIC for Candida tropicalis in presence of 50% human serum; type: functional
[1] = Inhibition of glucan synthase in Aspergillus fumigatus R21
[2] = Inhibition of glucan synthase in Aspergillus fumigatus MF5668 in presence of 20% human serum
Glucan synthase [3] = target: T1, Glucan synthase (Candida albicans, UniProt O13423); test: Inhibition of glucan synthase in Candida albicans ATCC 90028 in presence of 20% human serum
T1 sequence (O13423 whole entry): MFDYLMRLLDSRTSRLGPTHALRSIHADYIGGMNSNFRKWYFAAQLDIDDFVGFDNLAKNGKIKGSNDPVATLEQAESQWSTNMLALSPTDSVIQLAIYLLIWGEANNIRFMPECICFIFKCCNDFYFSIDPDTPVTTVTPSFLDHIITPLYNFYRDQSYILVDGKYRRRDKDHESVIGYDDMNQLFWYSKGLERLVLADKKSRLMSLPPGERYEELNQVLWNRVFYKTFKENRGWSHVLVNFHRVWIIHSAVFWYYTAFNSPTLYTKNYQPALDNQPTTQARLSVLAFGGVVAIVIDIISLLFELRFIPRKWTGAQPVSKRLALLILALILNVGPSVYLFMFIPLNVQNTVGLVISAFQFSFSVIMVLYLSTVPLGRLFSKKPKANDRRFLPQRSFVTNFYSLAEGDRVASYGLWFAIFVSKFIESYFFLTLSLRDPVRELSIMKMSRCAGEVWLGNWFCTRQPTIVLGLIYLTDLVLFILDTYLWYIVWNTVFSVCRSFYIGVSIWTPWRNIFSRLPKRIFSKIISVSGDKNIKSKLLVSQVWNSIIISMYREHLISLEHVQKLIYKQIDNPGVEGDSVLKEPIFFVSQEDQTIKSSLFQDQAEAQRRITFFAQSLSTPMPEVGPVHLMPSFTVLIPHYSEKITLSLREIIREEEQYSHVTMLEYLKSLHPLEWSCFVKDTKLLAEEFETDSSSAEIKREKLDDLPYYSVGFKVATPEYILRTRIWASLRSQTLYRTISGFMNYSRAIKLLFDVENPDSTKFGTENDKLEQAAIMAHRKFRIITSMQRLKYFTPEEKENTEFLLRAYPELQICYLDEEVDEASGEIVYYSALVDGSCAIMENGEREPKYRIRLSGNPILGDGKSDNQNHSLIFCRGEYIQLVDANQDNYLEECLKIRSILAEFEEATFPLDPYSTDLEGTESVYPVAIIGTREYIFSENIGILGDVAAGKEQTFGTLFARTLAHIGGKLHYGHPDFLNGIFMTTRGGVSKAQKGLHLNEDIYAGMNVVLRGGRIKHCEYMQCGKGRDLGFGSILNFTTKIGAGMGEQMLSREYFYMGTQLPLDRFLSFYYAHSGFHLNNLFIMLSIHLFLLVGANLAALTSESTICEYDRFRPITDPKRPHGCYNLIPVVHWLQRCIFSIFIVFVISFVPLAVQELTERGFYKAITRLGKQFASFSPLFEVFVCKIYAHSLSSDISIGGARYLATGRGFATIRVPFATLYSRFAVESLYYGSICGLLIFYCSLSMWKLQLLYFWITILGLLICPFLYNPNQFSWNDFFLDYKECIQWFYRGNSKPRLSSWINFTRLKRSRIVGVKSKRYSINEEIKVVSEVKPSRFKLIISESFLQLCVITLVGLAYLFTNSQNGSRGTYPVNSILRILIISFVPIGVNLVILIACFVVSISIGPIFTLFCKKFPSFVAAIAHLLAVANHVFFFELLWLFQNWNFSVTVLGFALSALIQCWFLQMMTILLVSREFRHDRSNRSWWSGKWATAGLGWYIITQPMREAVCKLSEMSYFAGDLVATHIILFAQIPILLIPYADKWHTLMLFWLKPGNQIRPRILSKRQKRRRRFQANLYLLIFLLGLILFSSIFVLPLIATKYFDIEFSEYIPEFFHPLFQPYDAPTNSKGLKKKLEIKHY

Aspergillus terreus = test: Ratio of MIC for Aspergillus flavus to MIC for Aspergillus terreus in presence of 50% human serum; type: functional
Aspergillus fumigatus = test: Ratio of MIC for Aspergillus fumigatus to MIC for Aspergillus fumigatus in presence of 50% human serum; type: functional
Glucan synthase [4] = target: T1, Glucan synthase; test: Inhibition of glucan synthase in Candida albicans SC5314 in presence of 20% human serum
[5] = Inhibition of glucan synthase in Aspergillus fumigatus MF5668 in presence of 50% human serum
Aspergillus niger = test: Ratio of MIC for Aspergillus flavus to MIC for Aspergillus niger in presence of 50% human serum; type: functional
Glucan synthase [6] = target: T1, Glucan synthase; test: Inhibition of glucan synthase in Candida albicans ATCC 90028
[7] = Inhibition of glucan synthase in Aspergillus fumigatus ATCC 13073
[8] = Inhibition of glucan synthase in Aspergillus fumigatus ATCC 13073 in presence of 20% human serum
Candida albicans [9] = test: Ratio of MIC for Candida albicans to MIC for Candida albicans in presence of 50% human serum; type: functional
Glucan synthase [10] = target: T1, Glucan synthase; test: Inhibition of glucan synthase in Candida albicans ATCC 36082 in presence of 10% human serum
[11] = Inhibition of glucan synthase in Aspergillus fumigatus ATCC 13073 in presence of 10% human serum
Glucan synthase [12] = target: T1, Glucan synthase; test: Inhibition of glucan synthase in Candida albicans 36082 assessed as incorporation of [3H]uridine diphosphoglucose in presence of 20% serum
Glucan synthase [13] = target: T1, Glucan synthase; test: Inhibition of glucan synthase in Candida albicans 36082 assessed as incorporation of [3H]uridine diphosphoglucose in presence of 50% serum
Pichia kudriavzevii = test: Ratio of MIC for Candida krusei to MIC for Candida krusei in presence of 50% human serum; type: functional
Candida albicans [14] = test: Antifungal activity against Candida albicans 36082 infected BALB/c mouse assessed as fungal kidney burden after 14 days; type: functional; settings: 336 h
Glucan synthase [15] = target: T1, Glucan synthase; test: Inhibition of glucan synthase in Candida albicans ATCC 36082
Glucan synthase [16] = target: T1, Glucan synthase; test: Inhibition of glucan synthase in Candida albicans ATCC 90028 in presence of 50% human serum
Glucan synthase [17] = target: T1, Glucan synthase; test: Inhibition of glucan synthase in Candida albicans ATCC 90028 in presence of 10% human serum
Glucan synthase [18] = target: T1, Glucan synthase; test: Inhibition of glucan synthase in Candida albicans 36082 assessed as incorporation of [3H]uridine diphosphoglucose in presence of 10% serum
Glucan synthase [19] = target: T1, Glucan synthase; test: Inhibition of glucan synthase in Candida albicans SC5314
[20] = Inhibition of glucan synthase in Aspergillus fumigatus R21 in presence of 10% human serum
[21] = Inhibition of glucan synthase in Aspergillus fumigatus MF5668 in presence of 10% human serum
[22] = Inhibition of glucan synthase in Aspergillus fumigatus MF5668
[23] = Inhibition of glucan synthase in Aspergillus fumigatus R21 in presence of 50% human serum
Glucan synthase [24] = target: T1, Glucan synthase; test: Inhibition of glucan synthase in Candida albicans ATCC 36082 in presence of 20% human serum
Nakaseomyces glabratus = test: Ratio of MIC for Candida glabrata to MIC for Candida glabrata in presence of 50% mouse serum; type: functional
Aspergillus flavus = test: Ratio of MIC for Aspergillus flavus to MIC for Aspergillus flavus in presence of 50% human serum; type: functional
Candida parapsilosis = test: Ratio of MIC for Candida parapsilosis to MIC for Candida parapsilosis in presence of 50% human serum; type: functional
[25] = Inhibition of glucan synthase in Aspergillus fumigatus R21 in presence of 20% human serum
Glucan synthase [26] = target: T1, Glucan synthase; test: Inhibition of glucan synthase in Candida albicans SC5314 in presence of 10% human serum
Glucan synthase [27] = target: T1, Glucan synthase; test: Inhibition of glucan synthase in Candida albicans 36082 assessed as incorporation of [3H]uridine diphosphoglucose
Glucan synthase [28] = target: T1, Glucan synthase; test: Inhibition of glucan synthase in Candida albicans SC5314 in presence of 50% human serum
Glucan synthase [29] = target: T1, Glucan synthase; test: Inhibition of glucan synthase in Candida albicans ATCC 36082 in presence of 50% human serum
[30] = Inhibition of glucan synthase in Aspergillus fumigatus ATCC 13073 in presence of 50% human serum

CCCCCOc1ccc(-c2ccc(-c3ccc(C(=O)N[C@H]4C[C@@H](O)[C@@H](O)NC(=O)[C@@H]5[C@@H](O)[C@@H](C)CN5C(=O)[C@H]([C@@H](C)O)NC(=O)[C@H]([C@H](O)[C@@H](O)c5ccc(O)cc5)NC(=O)[C@@H]5C[C@@H](O)CN5C(=O)[C@H]([C@@H](C)O)NC4=O)cc3)cc2)cc1 [ANIDULAFUNGIN] ({pTerphenylCO(4''-OnC5H11)}-[Orn(4R-OH,5R-OH)]T[Hyp][hTyr(3S-OH,4S-OH)]T[Pro(3S-OH,4S-Me)]; lactam 1-C)
Ratio (Candida tropicalis): 128 | IC50 [1]: 0.75 ng/mL (≈ 0.658 nM) | IC50 [2]: 6.9 ng/mL | IC50 (Glucan synthase [3]): 16.3 nM | Ratio (Aspergillus terreus): 16 | Ratio (Aspergillus fumigatus): 32 | IC50 (Glucan synthase [4]): 65.5 nM | IC50 [5]: 28.1 ng/mL | Ratio (Aspergillus niger): 32 | IC50 (Glucan synthase [6]): 0.877 nM | IC50 [7]: 13.3 ng/mL (≈ 11.7 nM) | IC50 [8]: 77.4 ng/mL | Ratio (Candida albicans [9]): 16 | IC50 (Glucan synthase [10]): 21 nM | IC50 [11]: 21.4 ng/mL | IC50 (Glucan synthase [12]): 16.4 nM | IC50 (Glucan synthase [13]): 25.8 nM | Ratio (Pichia kudriavzevii): 32 | ED90 (Candida albicans [14]): 1.17 mg/kg | ED99 (Candida albicans [14]): 1.36 mg/kg | IC50 (Glucan synthase [15]): 16.2 nM | IC50 (Glucan synthase [16]): 21.7 nM | IC50 (Glucan synthase [17]): 4.14 nM | IC50 (Glucan synthase [18]): 4.14 nM | IC50 (Glucan synthase [19]): 15 nM | IC50 [20]: 1.9 ng/mL | IC50 [21]: 5.5 ng/mL | IC50 [22]: 0.29 ng/mL (≈ 0.254 nM) | IC50 [23]: 11.9 ng/mL | IC50 (Glucan synthase [24]): 62.7 nM | Ratio (Nakaseomyces glabratus): 64 | Ratio (Aspergillus flavus): 32 | Ratio (Candida parapsilosis): 8 | IC50 [25]: 3.1 ng/mL | IC50 (Glucan synthase [26]): 13.4 nM | IC50 (Glucan synthase [27]): 0.88 nM | IC50 (Glucan synthase [28]): 78.1 nM

CC[C@H](C)C[C@H](C)CCCCCCCCC(=O)N[C@H]1C[C@@H](O)[C@@H](NCCN)NC(=O)[C@@H]2[C@@H](O)CCN2C(=O)[C@H]([C@H](O)CCN)NC(=O)[C@H]([C@H](O)[C@@H](O)c2ccc(O)cc2)NC(=O)[C@@H]2C[C@@H](O)CN2C(=O)[C@H]([C@@H](C)O)NC1=O [CASPOFUNGIN]
Ratio (Candida tropicalis): 4 | IC50 [1]: 1.6 ng/mL (≈ 1.46 nM) | IC50 [2]: 3.2 ng/mL | IC50 (Glucan synthase [3]): 1.92 nM | Ratio (Aspergillus terreus): 4 | Ratio (Aspergillus fumigatus): 11 | IC50 (Glucan synthase [4]): 33.8 nM | IC50 [5]: 4.8 ng/mL | Ratio (Aspergillus niger): 8 | IC50 (Glucan synthase [6]): 0.274 nM | IC50 [7]: 2 ng/mL (≈ 1.83 nM) | IC50 [8]: 5.9 ng/mL | Ratio (Candida albicans [9]): 2 | IC50 (Glucan synthase [10]): 2.56 nM | IC50 [11]: 2.8 ng/mL | IC50 (Glucan synthase [12]): 1.9 nM | IC50 (Glucan synthase [13]): 5.69 nM | Ratio (Pichia kudriavzevii): 8 | ED90 (Candida albicans [14]): 1.05 mg/kg | ED99 (Candida albicans [14]): 1.1 mg/kg | IC50 (Glucan synthase [29]): 7.96 nM | IC50 (Glucan synthase [15]): 0.823 nM | IC50 (Glucan synthase [16]): 5.76 nM | IC50 (Glucan synthase [17]): 1.19 nM | IC50 [30]: 9.4 ng/mL | IC50 (Glucan synthase [18]): 1.21 nM | IC50 (Glucan synthase [19]): 13.4 nM | IC50 [20]: 2.7 ng/mL | IC50 [21]: 1 ng/mL | IC50 [22]: 1.1 ng/mL (≈ 1.01 nM) | IC50 [23]: 10.3 ng/mL | IC50 (Glucan synthase [24]): 4.85 nM | Ratio (Nakaseomyces glabratus): 4 | Ratio (Aspergillus flavus): 8 | Ratio (Candida parapsilosis): 4 | IC50 [25]: 3.6 ng/mL | IC50 (Glucan synthase [26]): 24.7 nM | IC50 (Glucan synthase [27]): 0.302 nM | IC50 (Glucan synthase [28]): 73.6 nM

CCCCCOc1ccc(-c2cc(-c3ccc(C(=O)N[C@H]4C[C@@H](O)[C@@H](O)NC(=O)[C@@H]5[C@@H](O)[C@@H](C)CN5C(=O)[C@H]([C@H](O)CC(N)=O)NC(=O)[C@H]([C@H](O)[C@@H](O)c5ccc(O)c(OS(=O)(=O)O)c5)NC(=O)[C@@H]5C[C@@H](O)CN5C(=O)[C@H]([C@@H](C)O)NC4=O)cc3)no2)cc1 [MICAFUNGIN] (X1-[Orn(4R-OH,5R-OH)]T[Hyp][hTyr(3S-OH,4S-OH,3'-OSO3H)][Gln(3R-OH)][Pro(3S-OH,4S-Me)]; lactam 1-C)
Ratio (Candida tropicalis): 128 | IC50 [1]: 3.7 ng/mL (≈ 2.91 nM) | IC50 [2]: 3.3 ng/mL | IC50 (Glucan synthase [3]): 39.4 nM | Ratio (Aspergillus terreus): 32 | Ratio (Aspergillus fumigatus): 64 | IC50 (Glucan synthase [4]): 39.8 nM | IC50 [5]: 7.6 ng/mL | Ratio (Aspergillus niger): 133 | IC50 (Glucan synthase [6]): 14.2 nM | IC50 [7]: 2 ng/mL (≈ 1.57 nM) | IC50 [8]: 7.5 ng/mL | Ratio (Candida albicans [9]): 64 | IC50 (Glucan synthase [10]): 18.7 nM | IC50 [11]: 4.7 ng/mL | Ratio (Pichia kudriavzevii): 133 | ED90 (Candida albicans [14]): 1.97 mg/kg | ED99 (Candida albicans [14]): 3.71 mg/kg | IC50 (Glucan synthase [29]): 44.9 nM | IC50 (Glucan synthase [15]): 8.5 nM | IC50 (Glucan synthase [16]): 71 nM | IC50 (Glucan synthase [17]): 22.4 nM | IC50 [30]: 9.8 ng/mL | IC50 (Glucan synthase [19]): 21.2 nM | IC50 [20]: 6.2 ng/mL | IC50 [21]: 3.2 ng/mL | IC50 [22]: 2.2 ng/mL (≈ 1.73 nM) | IC50 [23]: 23.2 ng/mL | IC50 (Glucan synthase [24]): 24.7 nM | Ratio (Nakaseomyces glabratus): 64 | Ratio (Aspergillus flavus): 33 | Ratio (Candida parapsilosis): 8 | IC50 [25]: 10.3 ng/mL | IC50 (Glucan synthase [26]): 25.7 nM | IC50 (Glucan synthase [28]): 70.6 nM
